Among the data in PubChem BioAssay AID1745844 (Carcinogenic Potency Database (CPDB), 2022) are TD50 and carcinogen call values, retold here.

Several values for one entry are separate records, joined by “and”; a condition that tells them apart may be missing. Equal values may be shown once. Activity calls are given as the source filed them. The rule behind the calls is not given here.

In this data set the test system is rodent lifetime carcinogenesis bioassay, tumor incidence TD50. Briefly: carcinogenic potency in animals, long-term in vivo studies, CPDB compilation (AID 1745844).

`c1cc(OCC2CO2)cc(OCC2CO2)c1` (stereo unspecified): the TD50 (mouse, strain B6C3F1, females, by gavage, site: any site (literature study), lesion: several types, types named in the paper, dosed 103 weeks, study length 105 weeks) was found to be 32.3 mg/kg/day; the TD50 (mouse, strain B6C3F1, females, by gavage, site: liver, lesion: hepatocellular adenoma + hepatocellular carcinoma + neoplastic nodule, dosed 103 weeks, study length 105 weeks) is 169 mg/kg/day; the TD50 (mouse, strain B6C3F1, females, by gavage, site: liver, lesion: hepatocellular carcinoma, dosed 103 weeks, study length 105 weeks) is 221 mg/kg/day; the TD50 (mouse, strain B6C3F1, females, by gavage, site: lung, lesion: alveolar/bronchiolar adenoma + alveolar/bronchiolar carcinoma, dosed 103 weeks, study length 105 weeks) turned out to be 4790 mg/kg/day; the TD50 (mouse, strain B6C3F1, females, by gavage, site: stomach, lesion: papillomatosis + squamous-cell carcinoma + squamous-cell papilloma, dosed 103 weeks, study length 105 weeks) was 17.9 mg/kg/day; the TD50 (mouse, strain B6C3F1, females, by gavage, site: stomach, lesion: papillomatosis + squamous-cell papilloma, dosed 103 weeks, study length 105 weeks) is 48.2 mg/kg/day. For the same molecule, the TD50 reads like this: (mouse, strain B6C3F1, females, by gavage, site: stomach, lesion: squamous-cell carcinoma, dosed 103 weeks, study length 105 weeks) 36.3 mg/kg/day; (mouse, strain B6C3F1, males, by gavage, site: any site (literature study), lesion: several types, types named in the paper, dosed 103 weeks, study length 104 weeks) 36.6 mg/kg/day; (mouse, strain B6C3F1, males, by gavage, site: liver, lesion: hepatocellular adenoma + hepatocellular carcinoma + neoplastic nodule, dosed 103 weeks, study length 104 weeks) 84.7 mg/kg/day; (mouse, strain B6C3F1, males, by gavage, site: lung, lesion: alveolar/bronchiolar adenoma + alveolar/bronchiolar carcinoma, dosed 103 weeks, study length 104 weeks) 1350 mg/kg/day; (mouse, strain B6C3F1, males, by gavage, site: stomach, lesion: papillomatosis + squamous-cell carcinoma + squamous-cell papilloma, dosed 103 weeks, study length 104 weeks) 37.8 mg/kg/day; (mouse, strain B6C3F1, males, by gavage, site: stomach, lesion: papillomatosis + squamous-cell papilloma, dosed 103 weeks, study length 104 weeks) 145 mg/kg/day. In addition, the TD50 by setting is: (mouse, strain B6C3F1, males, by gavage, site: stomach, lesion: squamous-cell carcinoma, dosed 103 weeks, study length 104 weeks) 55.5 mg/kg/day; (rat, strain Fischer 344, females, by gavage, site: any site (literature study), lesion: several types, types named in the paper, dosed 103 weeks, study length 104 weeks) 8.53 mg/kg/day and 16 mg/kg/day; (rat, strain Fischer 344, females, by gavage, site: forestomach, lesion: squamous-cell carcinoma + squamous-cell papilloma, dosed 103 weeks, study length 104 weeks) 3.53 mg/kg/day; (rat, strain Fischer 344, females, by gavage, site: forestomach, lesion: squamous-cell carcinoma, dosed 103 weeks, study length 104 weeks) 5.93 mg/kg/day; (rat, strain Fischer 344, females, by gavage, site: forestomach, lesion: squamous-cell papilloma, dosed 103 weeks, study length 104 weeks) 8.95 mg/kg/day; (rat, strain Fischer 344, females, by gavage, site: liver, lesion: hepatocellular adenoma + hepatocellular carcinoma + neoplastic nodule, dosed 103 weeks, study length 104 weeks) 174 mg/kg/day. For the same molecule, the TD50 by setting is: (rat, strain Fischer 344, females, by gavage, site: stomach, lesion: squamous-cell carcinoma + squamous-cell papilloma, dosed 103 weeks, study length 104 weeks) 4.47 mg/kg/day; (rat, strain Fischer 344, females, by gavage, site: stomach, lesion: squamous-cell carcinoma, dosed 103 weeks, study length 104 weeks) 5.1 mg/kg/day; (rat, strain Fischer 344, females, by gavage, site: stomach, lesion: squamous-cell papilloma, dosed 103 weeks, study length 104 weeks) 45.5 mg/kg/day; (rat, strain Fischer 344, males, by gavage, site: any site (literature study), lesion: several types, types named in the paper, dosed 98 weeks, study length 104 weeks) 2.43 mg/kg/day; (rat, strain Fischer 344, males, by gavage, site: any site (literature study), lesion: several types, types named in the paper, dosed 103 weeks, study length 104 weeks) 4.61 mg/kg/day; (rat, strain Fischer 344, males, by gavage, site: forestomach, lesion: squamous-cell carcinoma + squamous-cell papilloma, dosed 103 weeks, study length 104 weeks) 2.33 mg/kg/day. Also, the TD50 is, setting by setting: (rat, strain Fischer 344, males, by gavage, site: forestomach, lesion: squamous-cell carcinoma, dosed 103 weeks, study length 104 weeks) 2.73 mg/kg/day; (rat, strain Fischer 344, males, by gavage, site: forestomach, lesion: squamous-cell papilloma, dosed 103 weeks, study length 104 weeks) 8.16 mg/kg/day; (rat, strain Fischer 344, males, by gavage, site: liver, lesion: hepatocellular adenoma + hepatocellular carcinoma + neoplastic nodule, dosed 98 weeks, study length 104 weeks) 114 mg/kg/day; (rat, strain Fischer 344, males, by gavage, site: liver, lesion: hepatocellular adenoma + hepatocellular carcinoma + neoplastic nodule, dosed 103 weeks, study length 104 weeks) 640 mg/kg/day; (rat, strain Fischer 344, males, by gavage, site: pituitary gland, lesion: adenoma, NOS, dosed 98 weeks, study length 104 weeks) 12.2 mg/kg/day; (rat, strain Fischer 344, males, by gavage, site: stomach, lesion: squamous-cell carcinoma + squamous-cell papilloma, dosed 98 weeks, study length 104 weeks) 2.89 mg/kg/day. The TD50 (rat, strain Fischer 344, males, by gavage, site: stomach, lesion: squamous-cell carcinoma, dosed 98 weeks, study length 104 weeks) is 3.06 mg/kg/day; the TD50 (rat, strain Fischer 344, males, by gavage, site: stomach, lesion: squamous-cell papilloma, dosed 98 weeks, study length 104 weeks) is 24.7 mg/kg/day; the TD50 (rat, strain Fischer 344, males, by gavage, site: testis, lesion: interstitial-cell tumor, dosed 98 weeks, study length 104 weeks) turned out to be 2.35 mg/kg/day.

For `Nc1cc(Cl)c(N)c(Cl)c1`, the TD50 was 801 mg/kg/day (mouse, strain B6C3F1, females, in feed, site: any site (literature study), lesion: several types, types named in the paper, dosed 103 weeks, study length 111 weeks); 883 mg/kg/day (mouse, strain B6C3F1, females, in feed, site: liver, lesion: hepatocellular adenoma + hepatocellular carcinoma + neoplastic nodule, dosed 103 weeks, study length 111 weeks); 883 mg/kg/day (mouse, strain B6C3F1, females, in feed, site: liver, lesion: hepatocellular adenoma + hepatocellular carcinoma, dosed 103 weeks, study length 111 weeks); 2030 mg/kg/day (mouse, strain B6C3F1, females, in feed, site: liver, lesion: hepatocellular carcinoma, dosed 103 weeks, study length 111 weeks); 42100 mg/kg/day (mouse, strain B6C3F1, females, in feed, site: lung, lesion: alveolar/bronchiolar adenoma + alveolar/bronchiolar carcinoma, dosed 103 weeks, study length 111 weeks); 1730 mg/kg/day (mouse, strain B6C3F1, males, in feed, site: any site (literature study), lesion: several types, types named in the paper, dosed 103 weeks, study length 111 weeks). Besides, the TD50 by setting is: (mouse, strain B6C3F1, males, in feed, site: liver, lesion: hepatocellular adenoma + hepatocellular carcinoma + neoplastic nodule, dosed 103 weeks, study length 111 weeks) 737 mg/kg/day; (mouse, strain B6C3F1, males, in feed, site: liver, lesion: hepatocellular adenoma + hepatocellular carcinoma, dosed 103 weeks, study length 111 weeks) 737 mg/kg/day; (mouse, strain B6C3F1, males, in feed, site: liver, lesion: hepatocellular adenoma, dosed 103 weeks, study length 111 weeks) 933 mg/kg/day; (rat, strain Fischer 344, females, in feed, site: liver, lesion: hepatocellular adenoma + hepatocellular carcinoma + neoplastic nodule, dosed 103 weeks, study length 111 weeks) 2960 mg/kg/day; (rat, strain Fischer 344, males, in feed, site: any site (literature study), lesion: several types, types named in the paper, dosed 103 weeks, study length 111 weeks) 914 mg/kg/day (inactive); (rat, strain Fischer 344, males, in feed, site: liver, lesion: hepatocellular adenoma + hepatocellular carcinoma + neoplastic nodule, dosed 103 weeks, study length 111 weeks) 340 mg/kg/day. In addition, under “rat, strain Fischer 344, females, in feed, site: any site (literature study), lesion: several types, types named in the paper, dosed 103 weeks, study length 111 weeks”, the carcinogen call was “negative (inactive)”.
